Data reported in ChEMBL document CHEMBL4251561, “1,4-Naphthoquinones potently inhibiting P2X7 receptor activity” (Eur J Med Chem, 2018).
Values after ≈ are worked out from the molar mass of the structure shown. Active and inactive are the calls of the source. No cut-off for these calls is given here.

Columns and labels:
[1] = Apparent permeability across apical to basolateral side in human Caco2 cells at 100 uM after 60 mins by lucifer yellow fluorescence-based assay relative to propranolol; assay type: ADME, cell-based; details: caco-2, 1 h
P2X purinoceptor 7 [2] = molecular target: T1, P2X purinoceptor 7 (Mus musculus, UniProt Q9Z1M0); assay: (§1) Antagonist activity at P2X7R in Swiss Webster mouse peritoneal macrophages assessed as inhibition of ATP-induced propidium iodide uptake preincubated for 10 mins followed by ATP induction measured after 25 mins by fluorescence assay
T1 sequence (Q9Z1M0 whole entry): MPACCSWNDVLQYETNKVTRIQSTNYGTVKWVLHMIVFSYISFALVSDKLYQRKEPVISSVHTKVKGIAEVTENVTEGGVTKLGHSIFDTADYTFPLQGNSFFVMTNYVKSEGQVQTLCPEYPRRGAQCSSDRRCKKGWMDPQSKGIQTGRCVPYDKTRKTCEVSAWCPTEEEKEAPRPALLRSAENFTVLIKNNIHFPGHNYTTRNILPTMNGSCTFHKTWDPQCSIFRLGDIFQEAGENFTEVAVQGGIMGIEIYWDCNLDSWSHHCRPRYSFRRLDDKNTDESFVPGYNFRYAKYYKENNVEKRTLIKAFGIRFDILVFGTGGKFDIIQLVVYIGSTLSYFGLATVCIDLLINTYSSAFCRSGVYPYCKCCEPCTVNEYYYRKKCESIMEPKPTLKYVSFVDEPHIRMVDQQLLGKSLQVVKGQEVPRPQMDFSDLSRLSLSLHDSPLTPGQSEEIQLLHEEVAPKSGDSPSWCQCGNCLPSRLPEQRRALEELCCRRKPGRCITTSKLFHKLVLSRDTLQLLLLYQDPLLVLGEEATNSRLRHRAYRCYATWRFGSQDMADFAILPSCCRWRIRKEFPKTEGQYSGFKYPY

[3] = molecular target: T2, P2X purinoceptor 7 (Mus musculus) (UniProt Q9Z1M0); assay: as §1
T2 sequence (whole entry): T1 sequence (Q9Z1M0 whole entry)

[4] = Apparent permeability across apical to basolateral side in human Caco2 cells at 100 uM after 60 mins by lucifer yellow fluorescence-based assay; assay type: ADME, cell-based; details: Caco-2
Mus musculus [5] = assay: Antiinflammatory activity in ip dosed Swiss Webster mouse assessed as inhibition of carrageenan-induced paw edema preincubated for 30 mins followed by carrageenan challenge measured after 60 mins by plethysmometer; assay type: functional, organism-based
[6] = Kinetic solubility in pH 2 hydrochloride buffer; assay type: physicochemical; details: read-out: Kinetic_solubility
Peritoneal macrophage [7] = assay: Antiinflammatory activity in LPS/IFNgamma-differentiated Swiss Webster mouse peritoneal macrophages assessed as inhibition of ATP-induced IL-1beta release preincubated for 15 mins followed by ATP/LPS challenge measured after 30 mins by sandwich ELISA; assay type: functional, cell-based
[8] = Octanol-PBS distribution co-efficient, log D of the compound at 25 mM at pH 7.4 after 2 hrs by shake flask method; assay type: physicochemical
[9] = Kinetic solubility in pH 4 citrate buffer; assay type: physicochemical; details: read-out: Kinetic_solubility
P2X7R = assay: Selectivity index, ratio of CC50 for Swiss Webster mouse peritoneal macrophages to IC50 for antagonist activity at P2X7R in Swiss Webster mouse peritoneal macrophages; assay type: toxicity; details: read-out: Ratio CC50/IC50
[10] = Safety index, ratio of test compound CC50 to A740003 CC50 for Swiss Webster mouse peritoneal macrophages by LDH release assay; assay type: ADME, cell-based, Peritoneal macrophage
[11] = Safety index, ratio of test compound CC50 to BGG CC50 for Swiss Webster mouse peritoneal macrophages by LDH release assay; assay type: ADME, cell-based, Peritoneal macrophage
Peritoneal macrophage [12] = assay: Cytotoxicity against Swiss Webster mouse peritoneal macrophages at 100 uM after 72 hrs by resazurin reduction assay; assay type: cell-based
[13] = Kinetic solubility in pH 10 sodium hydroxide buffer; assay type: physicochemical; details: read-out: Kinetic_solubility
[14] = Intrinsic clearance in mouse liver microsomes assessed per mg of protein at 1 uM preincubated for 45 mins followed by NADPH addition; assay type: ADME, microsome; details: read-out: CLH
[15] = Cytotoxicity against Swiss Webster mouse peritoneal macrophages by LDH release assay; assay type: cell-based, Peritoneal macrophage
[16] = Kinetic solubility in pH 7.4 phosphate buffer; assay type: physicochemical; details: read-out: Kinetic_solubility
THP-1 = assay: Antiinflammatory activity in LPS/IFNgamma-differentiated human THP1 cells assessed as inhibition of ATP-induced IL-1beta release after 30 mins by ELISA; assay type: functional, cell-based; details: THP-1, 0.5 h
P2X purinoceptor 7 [17] = molecular target: T3, P2X purinoceptor 7 (Homo sapiens, UniProt Q99572); assay: Antagonist activity at human P2X7R expressed in HEK293 cells assessed as inhibition of ATP-induced […] uptake preincubated for 10 mins followed by ATP induction measured after 25 mins by fluorescence assay; assay type: cell-based
T3 sequence (Q99572 whole entry): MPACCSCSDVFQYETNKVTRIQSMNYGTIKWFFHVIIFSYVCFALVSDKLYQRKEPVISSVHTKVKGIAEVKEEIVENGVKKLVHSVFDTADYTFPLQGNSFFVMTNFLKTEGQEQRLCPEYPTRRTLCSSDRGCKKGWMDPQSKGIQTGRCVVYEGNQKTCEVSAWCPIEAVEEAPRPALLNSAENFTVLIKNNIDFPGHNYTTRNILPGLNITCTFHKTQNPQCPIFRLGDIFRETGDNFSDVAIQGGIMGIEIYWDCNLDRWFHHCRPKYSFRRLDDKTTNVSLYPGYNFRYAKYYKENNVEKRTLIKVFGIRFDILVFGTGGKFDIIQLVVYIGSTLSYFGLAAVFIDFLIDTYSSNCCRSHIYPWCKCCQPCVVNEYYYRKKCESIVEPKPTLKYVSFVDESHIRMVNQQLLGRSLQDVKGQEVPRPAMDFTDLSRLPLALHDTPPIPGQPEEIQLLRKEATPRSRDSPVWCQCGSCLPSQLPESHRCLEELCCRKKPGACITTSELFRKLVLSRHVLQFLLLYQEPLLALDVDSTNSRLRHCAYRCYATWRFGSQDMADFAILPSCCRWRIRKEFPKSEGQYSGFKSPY

[18] = Intrinsic clearance in human liver microsomes assessed per mg of protein at 1 uM preincubated for 45 mins followed by NADPH addition; assay type: ADME, microsome; details: read-out: CLH
[19] = molecular target: T2, P2X purinoceptor 7 (Mus musculus); assay: Antagonist activity at P2X7R in Swiss Webster mouse peritoneal macrophages assessed as inhibition of ionic current amplitude at 500 nM incubated for 300 secs in presence of ATP by patch clamp method
Peritoneal macrophage [20] = assay: Antiinflammatory activity in IFNgamma-differentiated Swiss Webster mouse peritoneal macrophages assessed as inhibition of LPS-induced IL-1beta release at 500 nM preincubated for 15 mins followed by LPS challenge measured after 30 mins by sandwich ELISA; assay type: functional, cell-based
Mus musculus [21] = assay: Antiinflammatory activity in Swiss Webster mouse assessed as inhibition of carrageenan-induced paw edema at 10 mg/kg, ip preincubated for 30 mins followed by carrageenan challenge measured after 60 mins by plethysmometer; assay type: functional, organism-based

| SMILES | IC50 (P2X purinoceptor 7 [2]) | IC50 (Peritoneal macrophage [7]) | IC50 (THP-1) | IC50 (P2X purinoceptor 7 [17]) | selectivity ratio (P2X7R) | Activity (Peritoneal macrophage [12]) | CC50 [15] | also measured |
| --- | --- | --- | --- | --- | --- | --- | --- | --- |
| COc1cccc(C2=C(O)C(=O)c3ccccc3C2=O)c1 | 3.17 µM |  |  |  |  | Non-Toxic |  |  |
| O=C1C(O)=C(I)C(=O)c2ccccc21 | 0.0484 µM | 0.0489 µM | 0.0402 µM | 0.0712 µM | 50600 | Non-Toxic | 2020 µM | Papp [1]: <= 50%; inhibition [3]: Dose-dependent effect; Papp A→B at 1 h, 100 µM [4]: 54.2 ×10⁻⁶ cm/s; inhibition (Mus musculus [5]): Dose-dependent effect; solubility kinetic [6]: 300 µM (≈ 90 µg/mL); logD at 2 h, 25000 µM [8]: -0.11; solubility kinetic [9]: 300 µM (≈ 90 µg/mL); selectivity ratio [10]: 3 to 6; selectivity ratio [11]: 10 to 20; solubility kinetic [13]: 300 µM (≈ 90 µg/mL); microsomal CLint at 1 µM [14]: 24.6 µL/min/mg; solubility kinetic [16]: < 300 µM; microsomal CLint at 1 µM [18]: 31.1 µL/min/mg; inhibition [19]: Active; inhibition (Peritoneal macrophage [20]): inactive |
| N#Cc1ccc(C2=C(O)C(=O)c3ccccc3C2=O)cc1 | 45.8 µM |  |  |  |  | Non-Toxic |  |  |
| COc1ccc(C2=C(O)C(=O)c3ccccc3C2=O)cc1 | 80.1 µM |  |  |  |  | Non-Toxic |  |  |
| O=C1C=C(O)C(=O)c2ccccc21 [LAWSONE] | 75.5 µM |  |  |  |  | Toxic |  |  |
| O=C(O)Cc1ccccc1Nc1c(Cl)cccc1Cl |  |  |  |  |  |  |  | inhibition (Mus musculus [21]): Active |
| CCOc1ccc(Nc2ccc(/C(=C3C=C/C(=[N+](/CC)Cc4cccc(S(=O)(=O)[O-])c4)C=C/3C)c3ccc(N(CC)Cc4cccc(S(=O)(=O)O)c4)cc3C)cc2)cc1 [BRILLIANT BLUE G] | 15.2 µM | 19.8 µM | 19.3 µM | 0.536 µM | 5.73 |  | 87.3 µM |  |

The next lines start with results.

| IC50 (P2X purinoceptor 7 [2]) | IC50 (Peritoneal macrophage [7]) | IC50 (THP-1) | IC50 (P2X purinoceptor 7 [17]) | SMILES | selectivity ratio (P2X7R) | Activity (Peritoneal macrophage [12]) | CC50 [15] | also measured |
| --- | --- | --- | --- | --- | --- | --- | --- | --- |
| 0.0231 µM | 0.0112 µM | 0.0098 µM | 0.0224 µM | O=C1C(O)=C(c2ccccc2)C(=O)c2ccccc21 | 86400 | Non-Toxic | 1990 µM | Papp [1]: 60%; inhibition [3]: Dose-dependent effect; Papp A→B at 1 h, 100 µM [4]: 61.1 ×10⁻⁶ cm/s; inhibition (Mus musculus [5]): Dose-dependent effect; solubility kinetic [6]: < 500 µM; logD at 2 h, 25000 µM [8]: -0.39; solubility kinetic [9]: < 500 µM; selectivity ratio [10]: 3 to 6; selectivity ratio [11]: 10 to 20; solubility kinetic [13]: < 500 µM; microsomal CLint at 1 µM [14]: 27.7 µL/min/mg; solubility kinetic [16]: < 500 µM; microsomal CLint at 1 µM [18]: 36.8 µL/min/mg; inhibition [19]: Active; inhibition (Peritoneal macrophage [20]): inactive |
| 0.712 µM | 0.677 µM | 0.633 µM | 0.414 µM | O=C1C(O)=C(Br)C(=O)c2ccccc21 | 1180 | Non-Toxic | 844 µM | inhibition [3]: Dose-dependent effect; selectivity ratio [10]: 3 to 6; selectivity ratio [11]: 10 to 20; inhibition (Peritoneal macrophage [20]): inactive |
| 81.3 µM |  |  |  | Cc1ccc(C2=C(O)C(=O)c3ccccc3C2=O)cc1 |  | Non-Toxic |  |  |
| 33.5 µM |  |  |  | O=C1C(O)=C(c2cccc(F)c2)C(=O)c2ccccc21 |  | Non-Toxic |  |  |
| 0.897 µM | 0.723 µM | 0.689 µM | 0.109 µM | COc1ccc(CC(=O)NC(N/C(=N/C#N)Nc2cccc3ncccc23)C(C)(C)C)cc1OC (stereo unspecified) | 362 |  | 325 µM | inhibition [19]: Active |
